From patent US9409876B2, “Bradykinin receptor antagonists and pharmaceutical compositions containing them” (DOMPE' FARMACEUTICI S.P.A., priority 2013, dated 2016)

biological target: T1, BKB1 receptors (Homo sapiens, UniProt P46663); assay: Calcium Mobilization Assay (FLIPR), IMR-90 cells, BKB1; format: cell-based; conditions: IL-1 induced IMR-90 cells, agonist desArg10-kallidin (DAKD)
T1 construct: Human (IMR-90) lung fibroblast cells expressing native BKB1 receptors; endogenous in cells; host or cells: IMR-90 human lung fibroblasts, treated with human IL-1 to up-regulate BKB1
T1 sequence (P46663 1-353): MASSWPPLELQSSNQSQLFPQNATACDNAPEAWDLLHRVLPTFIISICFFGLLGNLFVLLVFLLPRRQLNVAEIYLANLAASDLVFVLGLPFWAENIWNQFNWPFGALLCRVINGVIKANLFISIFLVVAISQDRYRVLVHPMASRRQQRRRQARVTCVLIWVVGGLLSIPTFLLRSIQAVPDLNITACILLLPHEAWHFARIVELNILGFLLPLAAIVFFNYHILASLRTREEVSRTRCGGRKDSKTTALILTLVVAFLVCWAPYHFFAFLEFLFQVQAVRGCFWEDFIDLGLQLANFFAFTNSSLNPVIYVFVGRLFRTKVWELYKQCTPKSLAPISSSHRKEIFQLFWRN
Method: Calcium Mobilization Assay (FLIPR)—Human (IMR-90) lung fibroblast cells expressing native BKB1 receptors were harvested by trypsinization and seeded into black wall/clear bottom 96-well plates (Costar 3904; Corning Life Sciences, Acton, Mass.) at approximately 13,000 cells/well. After 1 day incubation, cells were treated with human IL-1 (0.35 ng/ml) in 10% FBS/MEM for 2 h to up-regulate BKB1 receptors. Induced cells were loaded with fluorescent calcium indicator by incubation with 2.3 µM Fluo-4/acetoxymethyl ester (Invitrogen) at 37° C. for 1.5 h in the presence of an anion transport inhibitor (2.5 mM probenecid in 1% FBS/MEM). Extracellular dye was removed by washing with assay buffer (2.5 mM probenecid, 0.1% BSA in 20 mM HEPES/HBSS without bicarbonate or phenol red, pH 7.5) and cell plates were kept in the dark until used. Test compounds were assayed at eight concentrations in triplicate.

IC50 [nM] | Molecule
5100 | Cc1ccc(C(C(=O)NCC2CCCO2)N(CC2CCCCC2)C(=O)Cc2cccc(C)c2)cc1 (stereo not drawn) [40 (mix), N-(cyclohexylmethyl)-2-(3-methylphenyl)-N-{1-(4-methylphenyl)-2-oxo-2-[(tetrahydrofuran-2-ylmethyl)amino]ethyl}acetamide]
4300 | CCC(CC)CN(C(=O)Cc1ccccc1C)C(C(=O)NCC1CCCO1)c1ccc(C)cc1 (stereo not drawn) [41 (mix), N-(2-ethylbutyl)-2-(2-methylphenyl)-N-{1-(4-methylphenyl)-2-oxo-2-[(tetrahydrofuran-2-ylmethyl)amino]ethyl}acetamide]
9600 | CCC(CC)CN(C(=O)Cc1ccc(F)cc1)C(C(=O)NCC1CCCO1)c1ccc(C)cc1 (stereo not drawn) [42 (mix), N-(2-ethylbutyl)-2-(4-fluorophenyl)-N-{1-(4-methylphenyl)-2-oxo-2-[(tetrahydrofuran-2-ylmethyl)amino]ethyl}acetamide]
9500 | Cc1ccc(C(C(=O)NCC2CCCO2)N(Cc2cccn2C)C(=O)CN(C)C)cc1 (stereo not drawn) [43 (mix), 2-(dimethylamino)-N-[(1-methyl-1H-pyrrol-2-yl)methyl]-N-{1-(4-methylphenyl)-2-oxo-2-[(tetrahydrofuran-2-ylmethyl)amino]ethyl}acetamide]
12600 | Cc1ccc(C(C(=O)NCC2CCCO2)N(CC2CCCC2)C(=O)Cc2ccccc2C)cc1 (stereo not drawn) [44 (mix), N-(cyclopentylmethyl)-2-(2-methylphenyl)-N-{1-(4-methylphenyl)-2-oxo-2-[(tetrahydrofuran-2-ylmethyl)amino]ethyl}acetamide]
13100 | Cc1ccc(C(C(=O)NCC2CCCO2)N(CC2CCCC2)C(=O)Cc2cccc(C)c2)cc1 (stereo not drawn) [45 (mix), N-(cyclopentylmethyl)-2-(3-methylphenyl)-N-{1-(4-methylphenyl)-2-oxo-2-[(tetrahydrofuran-2-ylmethyl)amino]ethyl}acetamide]
11700 | Cc1ccc(C(C(=O)NCC2CCCO2)N(Cc2cccnc2)C(=O)Cc2ccccc2C)cc1 (stereo not drawn) [46 (mix), 2-(2-methylphenyl)-N-(pyridin-3-ylmethyl)-N-{1-(4-methylphenyl)-2-oxo-2-[(tetrahydrofuran-2-ylmethyl)amino]ethyl}acetamide]
9800 | Cc1ccc(C(C(=O)NCC2CCCO2)N(CC2CCCC2)C(=O)Cc2ccccc2)cc1 (stereo not drawn) [47 (mix), N-(cyclopentylmethyl)-N-{1-(4-methylphenyl)-2-oxo-2-[(tetrahydrofuran-2-yl)methylamino]ethyl}2-phenylacetamide]
15000 | Cc1ccc(C(C(=O)NCC2CCCO2)N(CC2CCCCC2)C(=O)CC2CCCC2)cc1 (stereo not drawn) [48 (mix), N-(cyclohexylmethyl)-2-cyclopentyl-N-{1-(4-methylphenyl)-2-oxo-2-[(tetrahydrofuran-2-ylmethyl)amino]ethyl}acetamide]
14700 | Cc1ccc(C(C(=O)NCC2CCCO2)N(CC(C)C)C(=O)Cc2c[nH]cn2)cc1 (stereo not drawn) [49 (mix), 2-(1H-imidazol-4-yl)-N-(2-methylpropyl)-N-{1-(4-methylphenyl)-2-oxo-2-[(tetrahydrofuran-2-ylmethyl)amino]ethyl}acetamide]
14200 | CCC(CC)CN(C(=O)C1CCCCC1)C(C(=O)NCC1CCCO1)c1ccc(C)cc1 (stereo not drawn) [50 (mix), N-(2-ethylbutyl)-N-{1-(4-methylphenyl)-2-oxo-2-[(tetrahydrofuran-2-ylmethyl)amino]ethyl}cyclohexanecarboxamide]
13000 | Cc1ccc(C(C(=O)NCC2CCCO2)N(CC2CCCC2)C(=O)CC2CCCC2)cc1 (stereo not drawn) [51 (mix), 2-cyclopentyl-N-cyclopentylmethyl-N-{1-(4-methylphenyl)-2-oxo-2-[(tetrahydrofuran-2-ylmethyl)amino]ethyl}acetamide]
63 | COc1ccccc1CN(C(=O)CC(C)C)C(C(=O)NCC1CCCO1)c1ccc(C2CC2)cc1 (stereo not drawn) [52 (mix), N-(2-methoxybenzyl]-N-[1-(4-cyclopropylphenyl)-2-oxo-2-[(tetrahydrofuran-2-yl)methylamino]ethyl)-3-methylbutanamide]
297 | COc1ccccc1CN(C(=O)Cn1nnc2ccccc21)C(C(=O)NCC1CCCO1)c1ccc(C(F)(F)F)cc1 (stereo not drawn) [53 (mix), 2-(1H-benzotriazol-1-yl)-N-(2-methoxybenzyl)-N-{1-(4-trifluoromethylphenyl)-2-oxo-2-[(tetrahydrofuran-2-ylmethyl)amino]ethyl}acetamide]
528 | COc1ccccc1CN(C(=O)CC(C)C)C(C(=O)NCC1CCCO1)c1ccc(C(F)(F)F)cc1 (stereo not drawn) [54 (mix)]
43 | COc1ccccc1CN(C(=O)Cn1nnc2ccccc21)[C@@H](C(=O)NC[C@H]1CCCO1)c1ccc(C)cc1 [Compound 1 (R,R), 2-(1H-benzotriazol-1-yl)-N-(2-methoxybenzyl)-N-{[(1R)-1-(4-methylphenyl)]-2-oxo-2-[(2R)-(tetrahydrofuran-2-ylmethyl)amino]ethyl}acetamide]
63 | COc1ccccc1CN(C(=O)c1coc(C)n1)[C@@H](C(=O)NC[C@H]1CCCO1)c1ccc(C)cc1 [Compound 2 (R,R)]
540 | COc1ccccc1CN(C(=O)Cc1cccc(F)c1F)[C@@H](C(=O)NC[C@H]1CCCO1)c1ccc(C)cc1 [Compound 3 (R,R), 2-(2,3-difluorophenyl)-N-(2-methoxybenzyl)-N-{(1R)-1-(4-methylphenyl)-2-oxo-2-[(2R)-(tetrahydrofuran-2-ylmethyl)amino]ethyl}acetamide]
358 | COc1ccccc1CN(C(=O)c1ccco1)[C@@H](C(=O)NC[C@H]1CCCO1)c1ccc(C)cc1 [Compound 4 (R,R), N-(2-methoxybenzyl)-N-[(1R)-1-(4-methylphenyl)-2-oxo-2-{[(2R)tetrahydrofuran-2-ylmethyl]amino}ethyl]furan-2-carboxamide]
456 | COc1ccccc1CN(C(=O)Cc1c(F)cccc1F)[C@@H](C(=O)NC[C@H]1CCCO1)c1ccc(C)cc1 [Compound 6 (R,R), 2-(2,6-difluorophenyl)-N-(2-methoxybenzyl)-N-{(1R)-1-(4-methylphenyl)-2-oxo-2-[(2R)-(tetrahydrofuran-2-ylmethyl)amino]ethyl}acetamide]
200 | COc1ccccc1CN(C(=O)Cc1ccccc1)[C@@H](C(=O)NC[C@H]1CCCO1)c1ccc(C)cc1 [Compound 7 (R,R), N-(2-methoxybenzyl)-N-{(1R)-1-(4-methylphenyl)-2-oxo-2-[(2R)-(tetrahydrofuran-2-ylmethyl)amino]ethyl}-2-phenylacetamide]
11 | COc1ccccc1CN(C(=O)Cn1ccnn1)[C@@H](C(=O)NC[C@H]1CCCO1)c1ccc(C)cc1 [Compound 30 (R,R), N-(2-methoxybenzyl)-N-{(1R)-1-(4-methylphenyl)-2-oxo-2-[(2R)-(tetrahydrofuran-2-ylmethyl)amino]ethyl}-2-(1H-1,2,3-triazol-1-yl)acetamide]
120 | N-(2-methoxybenzyl)-N-{(1S)-1-(4-methylphenyl)-2-oxo-2-[(2R)-(pyrrolidin-2-ylmethyl)amino]ethyl}-2-(1H-1,2,3-triazol-1-yl)acetate [55 (S,R)]

Molecule | IC50 [nM]
N-(2-methoxybenzyl)-N-{(1R)-1-(4-methylphenyl)-2-oxo-2-[(2R)-(pyrrolidin-2-ylmethyl)amino]ethyl}-2-(1H-1,2,3-triazol-1-yl)acetate [Compound 55 (R,R)] | 75.7
